In data set [1] the test system is antibody response to ovalbumin. Briefly: Adjuvant activity: antibody response to ovalbumin in mice, titer by solid-phase ELISA. The data set is classed as in vivo, Balb/c mice. As to conditions: for Adjuvant index / Anti-ovalbumin antibody titer: i.p. How it is done:
To study the adjuvant activity of RN-peptide, Balb/c mice were immunized with ovalbumin in saline in the presence of the RN-peptide, its analogs or GMDP, or without any adjuvant (control). The adjuvant was introduced on first immunization, whereas second immunization was carried out with half dose of OVA without adjuvant.
Adjuvant activity. Groups of 5 Balb/c mice were administered i.p. with 2.5-10 μg ovalbumin (Sigma, USA) per mouse in 200 μl PBS. RN-peptide (0.1-100 μg) or GMDP (1-100 μg) was introduced simultaneously with ovalbumin on first immunization. The second immunization was carried out 28 days later with half dose of ovalbumin (1.25-5.0 μg/200 μl) without adjuvant. Control mice received ovalbumin twice without adjuvant. Three days after the second immunization mice were bled from the tail vein. […] Control mice received polysaccharide without any adjuvant. Five and ten days after immunization mice were bled.
The antibody titer was evaluated by solid-phase ELISA as described by Douillard and Hoffman (1983) Enzyme-linked immunosorbent assay for screening monoclonal antibody production using enzyme-labeled second antibody. The antigen (ovalbumin or polysaccharide), 5 μg/ml in bicarbonate buffer, pH 8.6 (100 μl), was introduced into wells of 96-well microtiter plate. Incubation was carried out overnight at 4° C. The plate was washed 5 times with PBS and 5 times with PBS/0.1% Tween-20 (PBS-T). Remaining binding sites were blocked with 1% gelatin in PBS (2 h, room temperature). After washing 100 μl of mouse serum (1:100 dilution) was added, and serial three-fold dilutions were made. Bound antibodies were visualized by incubation with Horse-Radish-Peroxidase (HRP)-conjugated rabbit anti-mouse antibodies and OPD as the chromogenic substrate.

Another data set deals with mAb E6/1.2. As to conditions: cited from earlier work.
For another data set, the system named is E. coli strain TG-1. In words: Survival of Balb/c mice infected with E. coli strain TG-1. The data set is classed as in vivo, mouse. As to conditions: 2 ng i.p., 6 mice at 0 h. How it is done: Groups of Balb/c mice (20-22 g) were administered i.p. with RN-peptide, or GMDP, or saline (control), and then infected i.p. with E. coli strain TG-1 cells. Two doses of E. coli cells were used—1×10^8 (LD50) and 2×10^8 (LD100). Mice were infected one day (experiment A) or seven days (experiment B) after injection of the immunomodulator. Survival of mice was assessed during three days. Results showing that RN-peptide protects mice from lethal doses of E. coli infections (Table 4).

The conditions of data set [2]: rat, in vivo, ip. How it is done:
(§1) We studied the Ia-antigen-inducing activity of RN-peptide by stimulation in vitro of murine peritoneal macrophages. Flow cytometry was used to assess Ia-antigen expression. […] The pyrogenicity of the peptide was studied in Wistar rats. […] The dynamics of alteration of rectal temperature were monitored during 2.5 h.
The pyrogenic effect SPF female Wistar rats were injected i.p. with a peptide (1.01 mg/kg; 5.74×10^−7 mole/kg) in PBS or with equal dose of GMDP (0.4 mg/kg; 5.74×10^−7 mole/kg). Rectal temperature was recorded every 5 minutes for 160 minutes using PowerLabe/4sp system with an electronic thermometer (MLT1403 Rectal Probe for Rats, AD Instruments USA). All data were quantified (mean±SEM) and compared by the variance analysis.

The subject of data set [3] is Balb/c mice peritoneal mononuclear cells (PMC). Briefly: Ia-antigen-inducing effect, flow cytometry, peritoneal mononuclear cells. In kind it is cell-based, mouse. How it is done: as §1
Balb/c mice peritoneal mononuclear cells (PMC) were isolated by Histopaque density gradient centrifugation. PMC or WEHI-3 cells were incubated with RN-peptide (0.1-10 μg/ml) or GMDP (positive control) or saline (negative control) in RPMI 1640 medium, supplemented with 5% fetal calf serum upon rotary mixing for 18 h at 37° C. Cells were stained on ice bath with MKD6 anti-Ia^d mAb (supernatant from the in vitro culture, 1:10 dilution) and FITC-labeled anti-mouse immunoglobulin (Sigma, USA, 1:300 dilution), and then with phycoerythrin-labeled F4/80 mAb (Caltag, USA, 0.2 μg/100 μl). Ia antigen expression was assessed by flow cytometry using EPICS “Elite” (Coulter, USA).
For orientation: Flow cytometry measures light scatter and fluorescence of single cells or particles in a stream.

Where [4] appears, read: adjuvant 1 μg, ovalbumin 10 μg then 5 μg.
[5] abbreviates: adjuvant 10 μg, ovalbumin 10 μg then 5 μg.
Where [6] appears, read: adjuvant 100 μg, ovalbumin 10 μg then 5 μg.
Setting [7] is: Experiment A (infected one day after injection), 1 × 10^8 E. coli cells (LD50).
[8] abbreviates: Experiment A (infected one day after injection), 2 × 10^8 E. coli cells (LD100).
[9] abbreviates: Experiment B (infected seven days after injection), 1 × 10^8 E. coli cells (LD50).
The mark [10] stands for this setting: Experiment B (infected seven days after injection), 2 × 10^8 E. coli cells (LD100).
Setting [11] is: adjuvant 10 μg, ovalbumin 2.5 μg then 1.25 μg.

Where a SMILES comes first, the peptide text is derived from it. [ ]: non-standard residue; d: D form.

“RV-peptide: 14-mer, RN-peptide truncated from C-terminus (SEQ ID NO: 8) (RVPPRYHAKISPMV)”: the Adjuvant index in data set [1] (setting [4]) is 6.3 ± 0.06; in data set [1] (setting [5]) it was 1.4 ± 0.04; in data set [1] (setting [6]), 0.8 ± 0.03. Moreover, the Anti-ovalbumin antibody titer amounted to 37800 ± 350 in data set [1] (setting [4]), 8400 ± 240 in data set [1] (setting [5]) and 4800 ± 180 in data set [1] (setting [6]).

Regarding “R-I-peptide: 10-mer, RN-peptide truncated from C-terminus (SEQ ID NO: 9) (RVPPRYHAKI)”, the Adjuvant index in data set [1] (setting [4]) came out at 6.3 ± 0.06; in data set [1] (setting [5]), 3.2 ± 0.09; in data set [1] (setting [6]) it was 4.2 ± 0.05. Also, the values for the Anti-ovalbumin antibody titer in data set [1] (setting [4]), in data set [1] (setting [5]) and in data set [1] (setting [6]) were 24000, 19200 and 25200, respectively. Moreover, the “adjuvant activity (in words)” value in data set [1] (ovalbumin in mice) is reported as “adjuvant active”.

For the compound `CC(=O)N[C@H]1[C@H](O[C@H]2[C@H](O[C@H](C)C(=O)O)[C@@H](NC(C)=O)C(O)O[C@@H]2CO)O[C@H](CO)[C@@H](O)[C@@H]1O` (stereo partly drawn) [GlcNAc-β(1-4)-MurNAc], the “inhibition of binding of GMDP to E6/1.2 mAb” value with mAb E6/1.2 is on record as “could be inhibited by high concentration”.

Regarding “R-H-peptide: 7-mer, RN-peptide truncated from C-terminus (SEQ ID NO: 10); truncated heptapeptide (RVPPRYH)”, the Adjuvant index in data set [1] (setting [4]) was found to be 0.7 ± 0.03; in data set [1] (setting [5]), 2.3 ± 0.05; in data set [1] (setting [6]), 8.6 ± 0.09. Besides, the Anti-ovalbumin antibody titer in data set [1] (setting [4]) turned out to be 4000; in data set [1] (setting [5]), 13900; in data set [1] (setting [6]), 51900. In addition, in data set [1] (mouse, in vivo), the “dose required for maximal effect relative to RN-peptide” value was 100 times.

As to `C[C@H](N)C(=O)N[C@H](CCC(=O)O)C(N)=O` [Ala-D-iGln] (H-Ala-[dE]-NH2), in the data set on mAb E6/1.2, the “inhibition of binding of GMDP to E6/1.2 mAb” value was “not”.

Consider “VN-peptide: 14-mer, RN-peptide truncated from N-terminus (SEQ ID NO: 11) (VPPRYHAKISPMVN)”, for which the Adjuvant index in data set [1] (setting [4]) came to 0.9 ± 0.03; in data set [1] (setting [5]), 1.4 ± 0.04; in data set [1] (setting [6]), 0.7 ± 0.03. Besides, the Anti-ovalbumin antibody titer in data set [1] (setting [4]) was found to be 5400 ± 200; in data set [1] (setting [5]), 8400 ± 230; in data set [1] (setting [6]), 4200 ± 150.

For the compound `CC(=O)NC1C(OC2C(CO)OC(O)C(NC(C)=O)C2OC(C)C(=O)NC(C)C(=O)NC(CCC(=O)O)C(N)=O)OC(CO)C(O)C1O` (stereo not drawn) [LL-GMDP], the “binding of mAb E6/1.2” value with mAb E6/1.2 (compared with GMDP) is listed as “bind equally well”.

For `CC(=O)N[C@H]1[C@H](O[C@H]2[C@H](O[C@H](C)C(=O)N[C@@H](C)C(=O)N[C@H](CCC(=O)O)C(N)=O)[C@@H](NC(C)=O)C(O)O[C@@H]2CO)O[C@H](CO)[C@@H](O)[C@@H]1O` (stereo partly drawn) [GMDP, N-acetylglucosaminyl-β1-4-N-acetylmuramyl-alanyl-D-isoglutamine, reference compound], the Number of survivors was found to be 2 in the data set on E. coli strain TG-1 (setting [7]), 1 in the data set with E. coli strain TG-1 (setting [8]), 2 with E. coli strain TG-1 (setting [9]) and 0 with E. coli strain TG-1 (setting [10]). Also, the “surviving mice, 24 hours after infection” value in the data set on E. coli strain TG-1 (setting [7]) was 2; with E. coli strain TG-1 (setting [8]), 2; in the data set on E. coli strain TG-1 (setting [9]), 5; in the data set on E. coli strain TG-1 (setting [10]), 3. Also, the “surviving mice, 28 hours after infection” value in the data set with E. coli strain TG-1 (setting [7]), in the data set with E. coli strain TG-1 (setting [8]), with E. coli strain TG-1 (setting [9]) and in the data set on E. coli strain TG-1 (setting [10]) was 2 each time. In addition, the “surviving mice, 72 hours after infection” value turned out to be 2 in the data set with E. coli strain TG-1 (setting [7]), 1 with E. coli strain TG-1 (setting [8]), 2 in the data set on E. coli strain TG-1 (setting [9]) and 0 in the data set with E. coli strain TG-1 (setting [10]). The Adjuvant index amounted to 0.7 ± 0.03 in data set [1] (setting [4]), 2.37 ± 0.06 in data set [1] (setting [11]), 1.3 ± 0.03 in data set [1] (setting [5]) and 10.8 ± 0.08 in data set [1] (setting [6]). In addition, the Anti-ovalbumin antibody titer in data set [1] (setting [4]) was found to be 4000 ± 150; in data set [1] (setting [11]), 5800 ± 150; in data set [1] (setting [5]), 7900 ± 200; in data set [1] (setting [6]), 64800 ± 500. The “increase in body temperature” value in data set [2] is 2.0-4.0%. Besides, in data set [3] (18 h incubation), the “concentration of peak (optimal) Ia-antigen response” value was determined as 10 µg/mL. The “increase in Ia-positive cell number” value in data set [3] (at optimal dose, overnight treatment) is on record as 10%. Moreover, the “optimal dose for Ia-positive cell increase” value in data set [3] (overnight treatment) was determined as 10 µg.

The values are drawn from US20090142364A1, “Method for finding novel peptide immunostimulatory adjuvants, compositions and methods of use” (priority 2007, published 2009).
